Reference: ChEMBL document CHEMBL4219204, “Structure-based design and discovery of potent and selective KDM5 inhibitors” (Bioorg Med Chem Lett, 2018)

How the values were obtained:
[1] = target: Lysine-specific demethylase 5A/5B (Homo sapiens, UniProt P29375+Q9UGL1); experiment: Inhibition of KDM5A/KDM5B in human ZR-75-1 cells assessed as increase in H3K4me3 level after 72 hrs by fluorometric immunoassay; assay type: cell-based
[2] = target: T1, Lysine-specific demethylase 4B (Homo sapiens, UniProt O94953); experiment: Inhibition of KDM4B (unknown origin)
T1 sequence (O94953 whole entry): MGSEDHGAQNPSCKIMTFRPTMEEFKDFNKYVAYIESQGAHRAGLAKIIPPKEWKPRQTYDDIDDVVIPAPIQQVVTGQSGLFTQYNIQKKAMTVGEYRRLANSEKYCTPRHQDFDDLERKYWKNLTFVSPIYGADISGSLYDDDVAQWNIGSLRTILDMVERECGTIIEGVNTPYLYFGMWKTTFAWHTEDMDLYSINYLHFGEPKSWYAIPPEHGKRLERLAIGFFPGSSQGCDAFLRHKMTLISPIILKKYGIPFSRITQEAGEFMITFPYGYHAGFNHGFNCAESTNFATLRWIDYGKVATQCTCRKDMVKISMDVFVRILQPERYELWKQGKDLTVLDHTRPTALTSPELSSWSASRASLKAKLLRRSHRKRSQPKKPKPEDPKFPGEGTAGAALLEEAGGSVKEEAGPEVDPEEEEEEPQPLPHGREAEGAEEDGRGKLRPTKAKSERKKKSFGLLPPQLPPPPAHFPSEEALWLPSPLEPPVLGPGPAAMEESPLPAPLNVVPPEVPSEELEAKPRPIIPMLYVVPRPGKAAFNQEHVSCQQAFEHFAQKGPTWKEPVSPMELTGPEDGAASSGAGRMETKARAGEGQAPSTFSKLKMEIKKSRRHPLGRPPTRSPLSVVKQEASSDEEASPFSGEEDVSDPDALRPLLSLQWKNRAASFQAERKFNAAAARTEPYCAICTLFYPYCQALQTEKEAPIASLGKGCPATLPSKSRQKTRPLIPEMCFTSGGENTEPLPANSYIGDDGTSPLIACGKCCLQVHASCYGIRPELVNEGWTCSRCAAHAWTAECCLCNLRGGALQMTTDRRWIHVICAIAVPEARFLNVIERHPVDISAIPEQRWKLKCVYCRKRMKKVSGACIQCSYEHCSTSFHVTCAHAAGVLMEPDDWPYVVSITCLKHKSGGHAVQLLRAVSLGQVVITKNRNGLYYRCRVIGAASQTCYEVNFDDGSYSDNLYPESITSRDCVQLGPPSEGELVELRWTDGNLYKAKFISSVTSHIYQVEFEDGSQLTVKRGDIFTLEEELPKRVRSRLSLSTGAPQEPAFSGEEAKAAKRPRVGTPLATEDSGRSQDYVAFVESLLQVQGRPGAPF

Mus musculus = experiment: In vivo inhibition of KDM5 in nude mouse xenografted with human MCF7 cells assessed as increase in H3K4me3 level in tumor at 75 mg/kg, po qd for 5 days measured at 1 hrs post last dose by Western blot analysis relative to control; assay type: functional
[3] = target: Lysine-specific histone demethylase 1A (Homo sapiens, UniProt O60341); experiment: Inhibition of KDM1A (unknown origin)

## Cc1cc(Cl)ccc1COc1ccnn1-c1cc(C(=O)O)ccn1
[1]
  EC50: 90 nM
[2]
  IC50: 170 nM
Mus musculus
  fold change (FC): >4
[3]
  IC50: > 40000 nM
